Assay results published in patent publication US20180213776A1, “COMPOSITIONS FOR C[…] POPULATIONS” (PRESIDENT AND FELLOWS OF HARVARD COLLEGE, priority 2015, published 2018).

Tests used:
[1] = test system: primary ovarian follicles; assay: TUNEL assay of ovaries (apoptosis of ovarian follicles); format: in vivo, An. gambiae; settings: 24 hours after DBH exposure
Source text: Induction of autogenous egg development after exposure was not observed.

Aedes species = assay: Preliminary data on eggs of Aedes species; format: in vivo
An. gambiae females [2] = assay: Dose dependency of egg laying (oviposition); format: in vivo; settings: for individuals laying eggs: 24 hours prior to blood feeding, control 100%
Procedure: (§1) An. gambiae mosquitoes of the G3 strain were employed in all experiments. All mosquitoes were maintained under standard insectary conditions (26-28° C., 65-80% relative humidity, 12:12 hours light/dark photoperiod).
Mated females were tested for their ability to develop and lay eggs when exposed to DBH 24 hours prior to blood feeding at 5 different doses ranging in a 2-fold dilution series from about 2 μg to about 0.125 μg per mosquito, respectively. One hundred percent (100%) of the control females oviposited after a blood meal. […] An ED50 dose of […] (0.08-0.13 95% CI) was determined from the dose-response curve (slope of 2.32, R=0.993). Moreover, even in cases where females oviposited, a significant reduction in the number of eggs laid was detected at the three highest doses (e.g., 2 μg; 1 μg; and 0.5 μg), with a median egg number of zero compared to a median of 91.5 eggs in the control group.

[3] = test system: P. falciparum (NF54 strain); assay: P. falciparum infection (oocysts) after infectious blood meal; format: in vivo
Procedure: (§2) At the highest dose (2 μg), only 7.5% of females who fully engorged on an infectious blood meal were positive for oocysts, corresponding to an 87% reduction in infection prevalence relative to controls.

An. gambiae females [4] = assay: Egg development after blood feeding; format: in vivo
Procedure: as §1
(§3) The DBH compound methoxyfenozide (0.5 μl of a 0.4% solution re-suspended in acetone) (Sigma-Aldrich, 32507) was topically applied to the thorax of An. gambiae females anesthetized on ice using a micropipette. Mating success, egg development after blood feeding and longevity were determined relative to acetone-treated controls. Females were 2 days old at the time of application, and each experiment was replicated twice. The effects of methoxyfenozide on mating success were determined by adding DBH-treated and control virgin females into separate cages containing a large excess of 5 day-old virgin males, 24 hours following topical application. 48 hours later successfully inseminated (mated) females from each cage were determined via dissection and the presence of sperm in the spermatheca. […] Egg development was evaluated 3 days later upon dissection of the ovaries.
(§4) A mating effect experiment was comprised of an unexposed and exposed group with cases defined as those who mated. The efficacy of the mating effect was defined as the prevented fraction in exposed, i.e. one minus the risk ratio. […]

An. gambiae females [5] = assay: Mating success (insemination) after topical DBH application; format: in vivo
Procedure: as §1, §3, §4

mammals = settings: cited from earlier work
An. gambiae females [6] = assay: Longevity / mortality after DBH exposure; format: in vivo
Procedure: as §1
For the longevity experiments, DBH-treated and control females were maintained in cups and supplied ad libitum with a 10% sucrose solution and water. Mortality rates after DBH/acetone exposure were recorded daily for 2 weeks, encompassing the period needed for mosquitoes to become infectious.
Day post-exposure was stratified to account for the time varying nature in the mortality effect experiment. For each day, there is the number of exposed and unexposed mosquitoes surviving to that day (risk set), and the number in each group surviving through that day. Using the risk set in day i, the relative risk of surviving through day i (RRi) is estimated, comparing the exposed to the unexposed. The efficacy for the mortality was defined as one minus RRi for day i. The confidence interval for the relative risk of survival was estimated using a Normal approximation of ln(RRi), with standard error:
as §2

methoxyfenozide [DBH]
TUNEL: apoptosis of primary ovarian follicles [1]: extensive fragmentation of chromatin, indicative of apoptosis | effect on eggs (Aedes species): deformed eggs | females with no eggs developed in the ovaries despite fully engorging on blood (An. gambiae females [2]; all DBH-exposed groups, upon dissection): 98.7% | individuals laying eggs (An. gambiae females [2]; highest dose 2 μg per mosquito): 10.9% | induction of autogenous egg development after exposure (An. gambiae females [2]; in vivo): not observed | individuals laying eggs (An. gambiae females [2]; median dose 0.5 μg per mosquito): 47.4% | median egg number laid (An. gambiae females [2]; three highest doses (2 μg; 1 μg; 0.5 μg), control median 91.5 eggs): zero | reduction in infection prevalence relative to controls ([3]; 2 μg): 87% | females positive for oocysts ([3]; 2 μg, 7 days post-infectious blood meal, control 58.5%): 7.5% | intensity of infection in females that developed oocysts ([3]; in vivo): not significantly affected | oocyst prevalence ([3]; low dose 0.125 μg, control 58.5%): 50.7% | females failed to develop an infection ([3]; median dose 0.5 μg): 25.8% | reduction in prevalence ([3]; median dose 0.5 μg): 56% | egg development after blood feeding (An. gambiae females [4]; 0.5 μl of 0.4% solution topical, blood fed 24 hours after application, ovaries dissected 3 days later): completely abolished | efficacy: impaired egg development (reduction) (An. gambiae females [4]; prevented fraction in exposed, add-one smoothing, 68% CI 94-99%): 98% | efficacy: reduced mating success (reduction) (An. gambiae females [5]; prevented fraction in exposed, 68% CI 58-73%): 67% | females successfully inseminated by males (sperm in the spermatheca) (An. gambiae females [5]; treated once, 0.5 μl of 0.4% solution topically to thorax, controls 86%): 29% | carcinogenicity (mammals): non-carcinogenic | toxicity to mammals (mammals): not toxic to mammals unless used at extremely high concentrations | median survival time (An. gambiae females [6]; 0.125 μg, control 19 days): 16 days | median survival time (An. gambiae females [6]; 2 μg, control 19 days): 11 days | mortality over 14 days (An. gambiae females [6]; 0.5 μl of 0.4% solution topical, controls 10%): ~100% | median survival time (An. gambiae females [6]; 0.5 μl of 0.4% solution topical, recorded 2 weeks): 8 days | efficacy: maximum increase in daily mortality rate (An. gambiae females [6]; day 8 post exposure, 68% CI 37-72%): 60% | reduction in median survival time compared to controls (An. gambiae females [6]; highest dose (2 μg)): eight
